Where a SMILES comes first, the peptide text is derived from it. [ ]: non-standard residue; d: D form. d2Nal = N[C@H](Cc1ccc2ccccc2c1)C(=O)O
System: dogs with occluded anterior descending coronary artery
Assay: Effect of intravenously administered pralmorelin on cardiac function of dog with anterior descending coronary artery occlusion
Format: in vivo
Conditions: 100 μg/kg i.v.
Description: [Test Example 3] Effect of Intravenously Administered Pralmorelin on the Cardiac Function of Dog with a Model of Anterior Descending Coronary Artery Occlusion
Using a dog model of acute contractile dysfunction caused by occlusion of the anterior descending coronary artery, the inventors studied the cardiotonic action of pralmorelin.
The action of pralmorelin on the cardiac dysfunction deteriorated by occlusion of the coronary artery was evaluated by various hemodynamic parameters, cardiac output (CO), stroke volume (SV), maximal positive dP/dt of left ventricular pressure (+dP/dtmax), ejection fraction (EF), mean blood pressure (MBP), heart rate (HR), total peripheral resistance (TPR) and double product (RPP) as an index of myocardial oxygen consumption. • 1. Test Materials and Method • 1) Test Substance and Reagents • (1) Control
Pralmorelin dihydrochloride (hereunder referred to as KP-102) (prepared by the method described in WO 9304081) was dissolved in distilled water to prepare a 0.5 mg/mL solution. • (3) Reagents
In the experiment, adult beagles of either sex (weighing 9-11 kg) purchased from Nihon Nosan Kogyo K.K. (Kanagawa, Japan) were used. After arrival, the animals were allowed to eat a solid meal (CD-5, CLEA Japan, Inc. or Labo D Stock, Nark Corp.) and drink water in a room at a temperature of 20±2° C. and at a humidity of 55±15% under illumination for 12 hours a day (from 7:00 to 19:00); the animals were kept under these conditions for at least one week before use. • 3) Method of Measurement
Anesthesia was introduced by intravenous administration of pentobarbital (30 mg/kg) and in order to maintain anesthesia, pentobarbital (5-6 mg/kg/hr) was injected continuously by means of an infusion pump (FP-W-100, Toyo Sangyo) through a polyethylene cannula retained in the right cephalic vein. The endotracheal cannula was inserted and the chest was opened at the left fourth intercostal space under artificial respiration in a tidal volume of 20 mL/kg at a rate of 18 breaths/min with an artificial respirator (SN-480-3 of Shinano Seisakusho). The left anterior descending coronary artery was carefully detached from the site of origin over a length of 1-2 cm and an occluding thread was passed through.
The chest was opened at the left fifth intercostal space and a 5-segment conductance catheter (CCS-108-DA, Unique Medical) was inserted from the cardiac apex so that all electrodes would be placed in the left ventricle. A catheter equipped with a 5 Fr microtip pressure transducer (pressure transducer catheter, Model MPC-500, MILLAR) was inserted into the left ventricle through the left carotid artery. The conductance catheter and the pressure transducer catheter inserted into the left ventricle were connected to a built-in amplifier in a ventricular volume-measuring instrument (Integral 3; VPR-1002, Unique Medical) and the changes in the left ventricular pressure (LVP) and the volume of the left ventricle were measured simultaneously. To determine the mean blood pressure (MBP), blood pressure was measured via a blood pressure amplifier (AP641G, Nihon Kohden) from the 5 Fr pressure transducer catheter inserted into the left femoral artery. Heart rate (HR) was measured with a cardiotachometer (AT-601G, Nihon Kohden) from the pulse waves of blood pressure.
The chest was opened again at the fourth intercostal space and in order to measure the cardiac output (CO(EMF)) (CO as determined by an electromagnetic blood flowmeter based method), a probe connected to an electromagnetic blood flowmeter (MFV-2100, Nihon Kohden) was fitted at the site of origin of the aorta. A spiral electrode was put in the ischemic region that occurred due to the occlusion of coronary artery and a surface electrocardiogram was recorded. A Doppler probe was fitted on the left anterior descending coronary artery and the blood flow was determined with a Doppler blood flowmeter (PD-20, Crystal Biotech). […]

C[C@H](NC(=O)[C@@H](Cc1ccc2ccccc2c1)NC(=O)[C@@H](C)N)C(=O)N[C@@H](Cc1c[nH]c2ccccc12)C(=O)N[C@H](Cc1ccccc1)C(=O)N[C@@H](CCCCN)C(N)=O [KP-102, D-alanyl-3-(naphthalen-2-yl)-D-alanyl-L-alanyl-L-tryptophyl-D-phenylalanyl-L-lysinamide] (H-[dA][d2Nal]AW[dF]K-NH2)
change in LVEDP: Neither of the control and KP-102 groups showed changes in LVPsys and LVEDP | change in LVPsys: Neither of the control and KP-102 groups showed changes in LVPsys and LVEDP | change in double product (RPP), index of myocardial oxygen consumption: Neither group experienced a change in RPP | change in heart rate (HR): Neither of MBP and HR changed | change in mean blood pressure (MBP): Neither of MBP and HR changed | change in −dP/dtmax in comparison with control group: no significant change | increase in stroke volume (SV) from baseline before administration (5 minutes after the administration, n=5, p<0.05 vs control): 5% | maximum increase in cardiac output (CO) from baseline before administration (10 minutes after the administration, n=5, p<0.05 vs control): 7% | increase in +dP/dtmax from baseline before administration (10 minutes after the administration, p<0.05 vs control for first 20 minutes): 7% | maximal increase in ejection fraction (EF) (in 10 minutes, significant vs control): 10% | change in total peripheral resistance (TPR) (p<0.05 vs control): dropped following the administration

Source: patent publication US6878689B2, “Preventives or remedies for heart failure” (Kaken Pharmaceutical Co., Ltd., priority 2000, dated 2005)
